Columns and labels:
LS174T cells [1] = assay: Oral gavage of 3-MPA, LS174T liver colonization model; assay type: in vivo, mouse; settings: oral gavage 200 mg/kg prior to cell injection and on day one
Description: (§1) All animal work was conducted in accordance with a protocol approved by the Institutional Animal Care and Use Committee (IACUC) at The Rockefeller University and Memorial Sloan Kettering Cancer Center. […] For functional studies of PCK1, colorectal cancer cells (SW480 or LS174T) that had been stably transduced with a luciferase reporter (Ponomarev et al., 2004) were subjected to portal circulation injection in NSG mice; after two minutes, a splenectomy was performed. For functional and pharmacology studies of DHODH, colorectal cancer cells (Lvm3b) that had been stably transduced with a luciferase reporter were subjected to portal circulation injection in athymic nude mice; after two minutes, a splenectomy was performed. Mice were imaged weekly; experiments were terminated when the luciferase signal had saturated or the mice were too ill, whichever occurred first.
Chow was removed from cages four hours prior to injection of LS174T cells. Gavage with either 3-MPA (200 mg/kg in aqueous solution) or placebo was performed one hour prior to the injection of LS174T cells. 1×10^6 LS174T cells were injected into the portal systemic circulation as described in the Animals section above. Chow was returned to cages after injection. On day 1, chow was removed from cages; 3-MPA or placebo was administered via gavage four hours post-chow removal. […]

CRC cells [2] = assay: Liver colonization after portal circulation injection of 3-MPA pre-treated CRC cells; assay type: in vivo, mouse; settings: cells pre-treated in vitro for 24 hours, then portal circulation injection; p=0.01
Description: as §1
Due to the strong reduction in mCRC liver colonization observed upon PCK1 depletion, it was hypothesized that PCK1 inhibition may represent a potential therapeutic strategy for impairing CRC metastatic progression. In vivo proof-of-principle experiments were performed in two independent CRC cell lines with a PCK1-inhibitor, 3-mercaptopicolinic acid (3-MPA) (N. W. DiTullio, et al. Biochem J 138, 387-394 (1974)). […]

LS174T cells [3] = assay: Subcutaneous tumor growth of 3-MPA pre-treated LS174T cells; assay type: in vivo, mouse; settings: pre-treatment of LS174T cells with 3-MPA
LS174T cells [4] = assay: 3-Mercaptopicolinic acid in vitro growth assay; assay type: cell-based, human; settings: 24-hour exposure to 1 mM 3 MPA in media, terminated on day 5
Description: 3-Mercaptopicolinic Acid In Vitro Growth Assay
LS174T cells were seeded in 6-well plates. On day 1, the media was replaced with either control media or media supplemented with 1 mM 3 MPA. On day 2, all the media was replaced with control media. The experiment was terminated on day 5.
2×10^4 LS174T cells were seeded in triplicate. On day 1, the media was replaced with either control media or media supplemented with 1 mM 3 MPA. On day 2, all the media was replaced with control media. The experiment was terminated on day 5.

Lvm3b cells [5] = settings: K. Bracht, et al. Br J Cancer 103, 340-346 (2010); cited from earlier work
CRC cells [6] = assay: In vitro hypoxia cell growth assay with leflunomide; assay type: cell-based, human; settings: for impairment of proliferation, hypoxia versus normoxia: hypoxia compared with normoxia
Description: In Vitro Hypoxia Cell Growth Assays
Lvm3b cells or LS174T cells were grown under normoxia for 24 hours followed by incubation for 5 days under 0.5% oxygen and then counted using the Sceptor 2.0 automated Cell Counter (Millipore).
Dihydroorotate Dehydrogenase (DHODH) is a key enzyme in the metabolic pathway that […] dihydroorotate to orotate, which is ultimately converted to the pyrimidine nucleotides UTP and CTP. To further confirm that pyrimidine biosynthesis promotes CRC hypoxic growth, CRC growth upon DHODH inhibition was assessed.

Lvm3b cells [7] = assay: Lvm3b liver metastatic colonization in athymic nude mice; assay type: in vivo, mouse
Description: FIGS. 3A and 3B are a set of diagrams showing the effects of the DHODH inhibitor in inhibiting liver metastatic colonization. […] The mice were imaged every week. Firefly luciferase bioluminescent images are shown (p<0.0001, Student's t-test).
as §1
Chow was removed from cages four hours prior to injection of LS174T cells. Gavage with either 3-MPA (200 mg/kg in aqueous solution) or placebo was performed one hour prior to the injection of LS174T cells. 1×10^6 LS174T cells were injected into the portal systemic circulation as described in the Animals section above. Chow was returned to cages after injection. On day 1, chow was removed from cages; 3-MPA or placebo was administered via gavage four hours post-chow removal. Chow was returned to cages four hours after drug administration. Mice were imaged bi-weekly. […] An equivalent volume of DMSO was intraperitoneally injected every day to the control cohort.
To directly test this, highly metastatic LVM3b CRC cells of DHODH were depleted.

[8] = test system: two distinct CRC populations; assay: Primary tumor growth of CRC populations under leflunomide; assay type: in vivo; settings: leflunomide treatment
GAS HI tumor = assay: GAS HI patient-derived tumor growth in athymic nude mice; assay type: in vivo, mouse; settings: uridine administration, patient-derived tumor (FIG. 5B; text says FIGS. 5A and 5B)
CRC cells [9] = assay: Uridine rescue of hypoxic growth of PCK1 depleted CRC cells; assay type: cell-based, human; settings: uridine supplementation, hypoxia
Description: In Vitro Hypoxia Cell Growth Assays Lvm3b cells or LS174T cells were grown under normoxia for 24 hours followed by incubation for 5 days under 0.5% oxygen and then counted using the Sceptor 2.0 automated Cell Counter (Millipore). The above findings reveal that liver metastatic CRC cells enhance pyrimidine levels and that PCK1 drives pyrimidine nucleotide levels under hypoxia. […] To directly test this, whether the growth defect of PCK1 depletion upon hypoxia could be rescued by the pyrimidine nucleoside uridine was determined. […] The results reveal PCK1 induction to be a mechanism employed by CRC cells to enhance pyrimidine nucleotide levels under hypoxia to promote growth.

HS746T cells = assay: HS746T subcutaneous tumor growth in NSG mice; assay type: in vivo, mouse; settings: uridine administration, HS746T tumor (FIG. 4C)
Description: MPK: mg/kg body weight of mouse. Tumor size was measured by a digital caliper, and tumor volume was calculated as volume=[…].
Cg-Prkdc^scid Il2rg^tm1Wjl/SzJ (Nod-Scid-Gamma; NSG) mice (n=4 per each cohort).

Solubility of β-GPA = assay type: physicochemical

## O=C(O)c1ncccc1S [3-MPA, 3-mercaptopicolinic acid]
LS174T cells [1]
  colorectal cancer liver colonization: decreased colorectal cancer liver colonization
CRC cells [2]
  mCRC liver colonization in vivo: significantly reduced
LS174T cells [3]
  subcutaneous tumor growth: did not, however, alter subcutaneous tumor growth
LS174T cells [4]
  cell growth in vitro: did not alter cell proliferation in vitro
LS174T cells [4]; listed as 3 MPA
  cell growth in vitro: does not alter

## O=c1[nH]cc(F)c(=O)[nH]1 [5-FU, 5-fluorouracil]
Lvm3b cells [5]
  resistance of cells to the drug: highly resistant

## Cc1oncc1C(=O)Nc1ccc(C(F)(F)F)cc1 [leflunomide]
CRC cells [6]; hypoxia (0.5% oxygen)
  CRC growth in the context of hypoxia: significantly impaired
CRC cells [6]
  impairment of proliferation, hypoxia versus normoxia: impaired proliferation significantly more in the context of hypoxia than under normoxia
CRC cells [6]; listed as Leflunomide
  impairment of proliferation, hypoxia versus normoxia: more significant under hypoxia than normoxia
Lvm3b cells [7]; 7.5 mg/kg body weight intraperitoneally every day, athymic nude mice, versus DMSO
  reduction in CRC liver metastatic colonization: ~90 fold
Lvm3b cells [7]; 7.5 mg/kg from day 1, n=4, p<0.0001, Student's t-test
  liver metastatic colonization of Lvm3b cells (luciferase bioluminescence): inhibited liver metastatic colonization
Lvm3b cells [7]; 7.5 mg/kg, versus control mice, p=0.006
  survival (Kaplan-Meier): significantly longer survival
[8]
  primary tumor growth: only modestly impacted

## O=c1ccn([C@@H]2O[C@H](CO)[C@@H](O)[C@H]2O)c(=O)[nH]1 [uridine]
CRC cells [6]; uridine supplementation, hypoxia, leflunomide treatment
  rescue of leflunomide-impaired growth upon hypoxia: rescued
GAS HI tumor
  rescue of leflunomide induced tumor growth suppression: rescued
CRC cells [9]
  rescue of hypoxic growth defect upon PCK1 depletion: rescued the hypoxic growth defect
HS746T cells
  rescue of leflunomide-induced tumor growth reduction: rescued

## N=C(N)NCCC(=O)O [β-GPA, beta-guanidinopropionic acid]
Solubility of β-GPA; organic solvents
  solubility in organic solvents: low solubility
Solubility of β-GPA; water
  solubility: > 50 mg/mL

Reference: patent US12582667B2, “Compositions and methods to treat metastatic gastrointestinal cancer” (The Rockefeller University, priority 2019, dated 2026)
